Measurements as given in article PMC12586182 (Frontiers in Oncology, 2025).

Key:
PKACβ = biological target: T1, PKACβ (Homo sapiens, UniProt P22694); assay: Kinase panel profiling at 1 µmol/L (mobility shift assay, Carna); format: biochemical; conditions: 1 µmol/L of BTK inhibitor
T1 construct: purchased Carna Biosciences

FGFR3 = FGFR3 (Homo sapiens, UniProt P22607); assay: Kinase enzyme activity assay (mobility shift assay, Carna); conditions: for Percentage inhibition of kinase enzyme activity: FGFR3, 1 µmol/L of BTK inhibitor
MRCKβ = biological target: T2, MRCKβ (Homo sapiens, UniProt Q9Y5S2); assay: Kinase panel profiling at 1 µmol/L (mobility shift assay, Carna); format: biochemical; conditions: 1 µmol/L of BTK inhibitor
T2 construct: purchased Carna Biosciences

JAK2 = biological target: T3, JAK2 (Homo sapiens, UniProt O60674); assay: as above; format: biochemical; conditions: 1 µmol/L of BTK inhibitor
T3 construct: purchased Carna Biosciences

PLK1 = biological target: T4, PLK1 (Homo sapiens, UniProt P53350); assay: as above; format: biochemical; conditions: 1 µmol/L of BTK inhibitor
T4 construct: purchased Carna Biosciences

TRKB = biological target: T5, TRKB (Homo sapiens, UniProt Q16620); assay: as above; format: biochemical; conditions: 1 µmol/L of BTK inhibitor
T5 construct: purchased Carna Biosciences

HGK = biological target: T6, HGK (Homo sapiens, UniProt O95819); assay: as above; format: biochemical; conditions: 1 µmol/L of BTK inhibitor
T6 construct: purchased Carna Biosciences

PKCγ = biological target: T7, PKCγ (Homo sapiens, UniProt P05129); assay: as above; format: biochemical; conditions: 1 µmol/L of BTK inhibitor
T7 construct: purchased Carna Biosciences

EPHA3 = biological target: T8, EPHA3 (Homo sapiens, UniProt P29320); assay: as above; format: biochemical; conditions: 1 µmol/L of BTK inhibitor
T8 construct: purchased Carna Biosciences
T8 sequence (P29320 21-983): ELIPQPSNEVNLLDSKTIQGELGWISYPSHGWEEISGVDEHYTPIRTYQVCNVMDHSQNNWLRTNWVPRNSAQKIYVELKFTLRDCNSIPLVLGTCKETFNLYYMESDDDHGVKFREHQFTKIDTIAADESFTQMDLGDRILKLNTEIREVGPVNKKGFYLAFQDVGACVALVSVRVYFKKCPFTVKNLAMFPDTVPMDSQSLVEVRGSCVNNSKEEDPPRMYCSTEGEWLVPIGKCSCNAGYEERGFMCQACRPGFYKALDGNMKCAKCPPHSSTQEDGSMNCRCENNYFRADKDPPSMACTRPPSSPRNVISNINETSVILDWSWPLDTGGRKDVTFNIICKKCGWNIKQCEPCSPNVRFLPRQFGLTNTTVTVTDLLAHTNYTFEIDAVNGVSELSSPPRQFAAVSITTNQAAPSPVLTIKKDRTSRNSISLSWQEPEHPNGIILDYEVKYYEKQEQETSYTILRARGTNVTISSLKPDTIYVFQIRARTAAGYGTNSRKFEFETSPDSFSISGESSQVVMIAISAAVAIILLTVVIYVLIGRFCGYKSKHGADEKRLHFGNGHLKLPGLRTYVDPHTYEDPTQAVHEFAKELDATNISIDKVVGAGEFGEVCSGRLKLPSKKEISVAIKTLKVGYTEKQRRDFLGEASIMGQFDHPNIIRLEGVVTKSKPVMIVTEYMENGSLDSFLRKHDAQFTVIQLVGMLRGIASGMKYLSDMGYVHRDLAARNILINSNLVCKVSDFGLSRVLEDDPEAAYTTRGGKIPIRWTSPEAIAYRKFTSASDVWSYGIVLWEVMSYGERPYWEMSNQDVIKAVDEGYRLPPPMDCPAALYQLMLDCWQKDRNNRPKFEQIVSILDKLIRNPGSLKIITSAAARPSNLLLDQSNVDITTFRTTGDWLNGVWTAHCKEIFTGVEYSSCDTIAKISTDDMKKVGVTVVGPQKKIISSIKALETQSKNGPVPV

FYN [isoform a] = biological target: T9, FYN [isoform a] (Homo sapiens, UniProt P06241); assay: as above; format: biochemical; conditions: 1 µmol/L of BTK inhibitor
T9 construct: purchased Carna Biosciences

RET = biological target: T10, RET (Homo sapiens, UniProt P07949); assay: as above; format: biochemical; conditions: 1 µmol/L of BTK inhibitor
T10 construct: purchased Carna Biosciences

GSK3β = biological target: T11, GSK3β (Homo sapiens, UniProt P49841); assay: as above; format: biochemical; conditions: 1 µmol/L of BTK inhibitor
T11 construct: purchased Carna Biosciences

QIK = biological target: T12, QIK (Homo sapiens, UniProt Q9H0K1); assay: as above; format: biochemical; conditions: 1 µmol/L of BTK inhibitor
T12 construct: purchased Carna Biosciences

TYRO3 = biological target: T13, TYRO3 (Homo sapiens, UniProt Q06418); assay: as above; format: biochemical; conditions: 1 µmol/L of BTK inhibitor
T13 construct: purchased Carna Biosciences
T13 sequence (Q06418 41-890): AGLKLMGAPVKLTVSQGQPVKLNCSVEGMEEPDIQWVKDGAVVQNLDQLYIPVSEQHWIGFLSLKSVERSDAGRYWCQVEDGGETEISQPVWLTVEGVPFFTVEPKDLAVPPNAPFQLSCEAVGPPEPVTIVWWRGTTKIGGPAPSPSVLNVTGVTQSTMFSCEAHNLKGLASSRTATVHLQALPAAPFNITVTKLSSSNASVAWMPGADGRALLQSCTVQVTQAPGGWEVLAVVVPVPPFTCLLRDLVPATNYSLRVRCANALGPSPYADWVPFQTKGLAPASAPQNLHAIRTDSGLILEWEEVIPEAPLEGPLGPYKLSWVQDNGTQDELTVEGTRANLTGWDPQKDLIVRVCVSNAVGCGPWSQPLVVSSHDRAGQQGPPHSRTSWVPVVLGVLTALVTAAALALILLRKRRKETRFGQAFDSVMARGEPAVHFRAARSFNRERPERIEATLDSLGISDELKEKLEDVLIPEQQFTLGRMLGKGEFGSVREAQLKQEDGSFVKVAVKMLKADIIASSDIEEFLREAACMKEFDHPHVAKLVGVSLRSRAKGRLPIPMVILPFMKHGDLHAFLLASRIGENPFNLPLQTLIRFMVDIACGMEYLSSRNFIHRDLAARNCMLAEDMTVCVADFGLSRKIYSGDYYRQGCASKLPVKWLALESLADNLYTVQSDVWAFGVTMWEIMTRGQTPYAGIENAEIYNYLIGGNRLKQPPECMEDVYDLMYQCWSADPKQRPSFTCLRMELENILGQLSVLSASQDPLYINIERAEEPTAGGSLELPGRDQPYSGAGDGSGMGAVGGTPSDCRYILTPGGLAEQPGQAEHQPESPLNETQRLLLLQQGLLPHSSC

SIK = biological target: T14, SIK (Homo sapiens, UniProt P57059); assay: as above; format: biochemical; conditions: 1 µmol/L of BTK inhibitor
T14 construct: purchased Carna Biosciences

FER = biological target: T15, FER (Homo sapiens, UniProt P16591); assay: as above; format: biochemical; conditions: 1 µmol/L of BTK inhibitor
T15 construct: purchased Carna Biosciences

FGFR1 = FGFR1 (Homo sapiens, UniProt P11362); assay: Kinase enzyme activity assay (mobility shift assay, Carna); conditions: for Percentage inhibition of kinase enzyme activity: FGFR1, 1 µmol/L of BTK inhibitor
NIM1K = biological target: T16, NIM1K (Homo sapiens, UniProt Q8IY84); assay: Kinase panel profiling at 1 µmol/L (mobility shift assay, Carna); format: biochemical; conditions: 1 µmol/L of BTK inhibitor
T16 construct: purchased Carna Biosciences
T16 sequence (Q8IY84 whole entry): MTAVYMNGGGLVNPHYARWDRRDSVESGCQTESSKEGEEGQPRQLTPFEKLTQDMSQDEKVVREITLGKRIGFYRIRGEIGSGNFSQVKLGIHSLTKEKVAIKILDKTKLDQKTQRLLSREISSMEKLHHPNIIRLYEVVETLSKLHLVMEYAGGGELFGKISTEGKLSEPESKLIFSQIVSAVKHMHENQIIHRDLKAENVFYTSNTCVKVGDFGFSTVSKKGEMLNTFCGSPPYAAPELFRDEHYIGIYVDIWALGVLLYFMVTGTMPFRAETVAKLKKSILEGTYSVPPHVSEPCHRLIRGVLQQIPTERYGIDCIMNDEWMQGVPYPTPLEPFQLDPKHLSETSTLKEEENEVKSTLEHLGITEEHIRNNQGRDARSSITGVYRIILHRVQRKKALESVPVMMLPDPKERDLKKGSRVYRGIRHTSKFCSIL

T12 sequence (Q9H0K1 whole entry): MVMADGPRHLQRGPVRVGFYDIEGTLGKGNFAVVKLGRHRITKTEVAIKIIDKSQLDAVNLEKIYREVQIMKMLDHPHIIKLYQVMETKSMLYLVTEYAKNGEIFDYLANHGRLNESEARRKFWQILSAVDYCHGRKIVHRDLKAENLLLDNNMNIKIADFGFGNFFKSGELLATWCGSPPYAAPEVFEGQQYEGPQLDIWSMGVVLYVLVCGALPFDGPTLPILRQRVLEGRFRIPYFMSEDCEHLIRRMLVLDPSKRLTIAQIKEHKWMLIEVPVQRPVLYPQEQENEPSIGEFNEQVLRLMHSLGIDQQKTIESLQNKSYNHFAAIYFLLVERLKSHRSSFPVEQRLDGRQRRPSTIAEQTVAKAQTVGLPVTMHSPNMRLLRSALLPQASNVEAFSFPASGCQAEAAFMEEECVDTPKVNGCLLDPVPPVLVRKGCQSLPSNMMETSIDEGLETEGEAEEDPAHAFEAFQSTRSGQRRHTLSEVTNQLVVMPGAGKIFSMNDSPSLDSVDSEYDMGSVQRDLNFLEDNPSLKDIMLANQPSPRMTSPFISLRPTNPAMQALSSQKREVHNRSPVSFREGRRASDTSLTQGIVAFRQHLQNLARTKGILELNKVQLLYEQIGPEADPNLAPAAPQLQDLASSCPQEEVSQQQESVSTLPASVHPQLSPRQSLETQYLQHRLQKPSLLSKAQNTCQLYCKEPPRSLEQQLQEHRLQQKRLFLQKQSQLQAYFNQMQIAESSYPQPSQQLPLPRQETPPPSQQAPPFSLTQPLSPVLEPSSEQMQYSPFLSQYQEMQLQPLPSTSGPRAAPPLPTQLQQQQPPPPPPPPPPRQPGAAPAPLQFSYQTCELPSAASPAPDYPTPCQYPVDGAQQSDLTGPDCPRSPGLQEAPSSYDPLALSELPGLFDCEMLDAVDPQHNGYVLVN
T10 sequence (P07949 29-1114): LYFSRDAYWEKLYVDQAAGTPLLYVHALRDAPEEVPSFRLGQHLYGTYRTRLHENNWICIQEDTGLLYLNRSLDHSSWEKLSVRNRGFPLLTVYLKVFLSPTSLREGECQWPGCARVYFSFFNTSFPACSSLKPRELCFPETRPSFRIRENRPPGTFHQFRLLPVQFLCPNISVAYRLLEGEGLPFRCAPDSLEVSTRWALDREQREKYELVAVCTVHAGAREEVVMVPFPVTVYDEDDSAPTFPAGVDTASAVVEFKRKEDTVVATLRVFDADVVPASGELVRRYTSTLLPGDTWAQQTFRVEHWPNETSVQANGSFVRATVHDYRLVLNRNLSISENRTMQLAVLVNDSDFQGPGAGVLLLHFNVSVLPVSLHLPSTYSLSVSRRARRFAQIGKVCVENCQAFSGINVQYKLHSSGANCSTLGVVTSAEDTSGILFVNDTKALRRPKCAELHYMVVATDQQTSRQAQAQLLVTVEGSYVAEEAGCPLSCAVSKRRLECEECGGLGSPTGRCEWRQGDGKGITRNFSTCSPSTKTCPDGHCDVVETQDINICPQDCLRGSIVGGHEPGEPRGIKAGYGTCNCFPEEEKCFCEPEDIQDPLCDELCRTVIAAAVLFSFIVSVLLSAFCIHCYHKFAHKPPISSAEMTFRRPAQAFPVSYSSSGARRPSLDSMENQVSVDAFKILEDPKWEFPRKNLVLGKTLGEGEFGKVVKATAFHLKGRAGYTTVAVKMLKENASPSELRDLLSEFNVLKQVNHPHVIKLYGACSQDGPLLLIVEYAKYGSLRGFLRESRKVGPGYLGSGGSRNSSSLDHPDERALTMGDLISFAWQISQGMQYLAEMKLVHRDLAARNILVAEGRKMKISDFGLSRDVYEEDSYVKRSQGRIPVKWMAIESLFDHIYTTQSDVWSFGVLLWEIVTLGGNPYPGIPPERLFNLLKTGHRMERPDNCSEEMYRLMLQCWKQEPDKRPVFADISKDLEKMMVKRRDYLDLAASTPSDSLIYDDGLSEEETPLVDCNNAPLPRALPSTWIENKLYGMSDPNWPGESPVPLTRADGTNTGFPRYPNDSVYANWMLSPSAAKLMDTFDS
T2 sequence (Q9Y5S2 whole entry): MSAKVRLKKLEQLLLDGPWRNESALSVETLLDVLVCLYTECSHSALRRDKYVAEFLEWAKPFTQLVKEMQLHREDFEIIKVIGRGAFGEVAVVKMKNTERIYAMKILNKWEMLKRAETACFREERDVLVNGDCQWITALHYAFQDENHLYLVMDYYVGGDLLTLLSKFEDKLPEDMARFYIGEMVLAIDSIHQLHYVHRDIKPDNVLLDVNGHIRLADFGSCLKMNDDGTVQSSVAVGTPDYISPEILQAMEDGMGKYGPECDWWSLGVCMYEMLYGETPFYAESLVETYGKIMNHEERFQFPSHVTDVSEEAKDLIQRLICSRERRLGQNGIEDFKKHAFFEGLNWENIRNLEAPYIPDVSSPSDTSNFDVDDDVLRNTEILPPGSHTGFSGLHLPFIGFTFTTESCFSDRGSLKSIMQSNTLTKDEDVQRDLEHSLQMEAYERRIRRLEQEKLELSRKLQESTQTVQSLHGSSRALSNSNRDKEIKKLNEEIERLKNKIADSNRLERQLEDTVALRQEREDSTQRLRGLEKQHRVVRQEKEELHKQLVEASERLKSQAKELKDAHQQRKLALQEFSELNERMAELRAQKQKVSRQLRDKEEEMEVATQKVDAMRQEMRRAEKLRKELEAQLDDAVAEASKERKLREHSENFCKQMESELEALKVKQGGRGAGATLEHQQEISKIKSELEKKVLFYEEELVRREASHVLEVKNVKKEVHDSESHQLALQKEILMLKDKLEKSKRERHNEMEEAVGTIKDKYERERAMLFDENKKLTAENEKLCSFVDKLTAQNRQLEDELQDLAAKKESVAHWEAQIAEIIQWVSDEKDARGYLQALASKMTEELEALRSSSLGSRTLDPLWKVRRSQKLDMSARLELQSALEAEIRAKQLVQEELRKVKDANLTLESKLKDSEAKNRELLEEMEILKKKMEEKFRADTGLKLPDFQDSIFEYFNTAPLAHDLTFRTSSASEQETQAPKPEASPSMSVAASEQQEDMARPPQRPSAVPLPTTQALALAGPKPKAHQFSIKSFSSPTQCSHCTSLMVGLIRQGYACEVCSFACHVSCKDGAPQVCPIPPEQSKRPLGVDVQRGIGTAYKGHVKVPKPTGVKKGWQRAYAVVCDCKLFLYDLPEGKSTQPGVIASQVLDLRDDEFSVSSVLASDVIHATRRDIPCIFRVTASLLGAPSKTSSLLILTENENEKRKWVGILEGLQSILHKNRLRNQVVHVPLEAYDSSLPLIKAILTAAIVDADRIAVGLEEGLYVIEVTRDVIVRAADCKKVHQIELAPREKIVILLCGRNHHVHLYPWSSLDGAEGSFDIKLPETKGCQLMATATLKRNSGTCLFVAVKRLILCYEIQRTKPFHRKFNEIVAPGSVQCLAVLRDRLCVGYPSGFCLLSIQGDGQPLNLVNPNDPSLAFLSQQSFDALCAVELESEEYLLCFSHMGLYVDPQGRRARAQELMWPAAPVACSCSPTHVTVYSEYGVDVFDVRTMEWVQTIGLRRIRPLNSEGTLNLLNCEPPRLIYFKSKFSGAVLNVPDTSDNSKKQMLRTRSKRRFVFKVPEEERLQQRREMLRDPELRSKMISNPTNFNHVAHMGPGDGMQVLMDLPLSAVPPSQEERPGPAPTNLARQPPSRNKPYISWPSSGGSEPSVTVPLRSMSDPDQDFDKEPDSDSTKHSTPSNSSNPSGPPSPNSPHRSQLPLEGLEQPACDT

Row | SMILES | Percentage inhibition of kinase enzyme activity (PKACβ) | Percentage inhibition of kinase enzyme activity (FGFR3) | Percentage inhibition of kinase enzyme activity (MRCKβ) | Percentage inhibition of kinase enzyme activity (JAK2) | Percentage inhibition of kinase enzyme activity (PLK1) | Percentage inhibition of kinase enzyme activity (TRKB) | Percentage inhibition of kinase enzyme activity (HGK) | Percentage inhibition of kinase enzyme activity (PKCγ) | Percentage inhibition of kinase enzyme activity (EPHA3) | Percentage inhibition of kinase enzyme activity (FYN [isoform a]) | Percentage inhibition of kinase enzyme activity (RET) | Percentage inhibition of kinase enzyme activity (GSK3β) | Percentage inhibition of kinase enzyme activity (QIK) | Percentage inhibition of kinase enzyme activity (TYRO3) | Percentage inhibition of kinase enzyme activity (SIK) | Percentage inhibition of kinase enzyme activity (FER) | Percentage inhibition of kinase enzyme activity (FGFR1) | Percentage inhibition of kinase enzyme activity (NIM1K) | IC50 (FGFR3) | IC50 (FGFR1)
1 | CC#CC(=O)N1CCC[C@H]1c1nc(-c2ccc(C(=O)Nc3ccccn3)cc2)c2c(N)nccn12 [acalabrutinib] | -13.09% | -1.31% | -15.91% | -9.14% | -2.57% | 13.81% | -1.42% | -7.43% | -2.07% | 5.84% | 13.72% | -2.39% | -0.22% | 3.11% | 0.26% | -2.54% | -2.28% | -7.33% | – | –
2 | C=CC(=O)N1CCC[C@@H](n2nc(-c3ccc(Oc4ccccc4)cc3)c3c(N)ncnc32)C1 [ibrutinib] | -9.04% | 81.85% | -7.55% | 0.41% | -2.28% | 25.78% | -0.0249% | 0.80% | 3.80% | 92.75% | 87.66% | -4.00% | 4.70% | 11.95% | 8.13% | – | 70.87% | -2.33% | – | –
3 | O=C(c1ccc(Oc2ccccc2)cc1Cl)c1c[nH]c2ncnc(N[C@@H]3CC[C@@H](CO)OC3)c12 [nemtabrutinib] | 12.59% | 86.25% | -5.25% | 14.34% | 1.28% | 101.64% | 72.78% | 0.06% | 50.57% | – | 98.99% | -7.92% | 81.76% | 58.33% | 96.56% | 96.49% | 46.81% | -2.21% | 70.1 nM | 134 nM
4 | COc1ccc(F)cc1C(=O)NCc1ccc(-c2nn([C@@H](C)C(F)(F)F)c(N)c2C(N)=O)cc1 [pirtobrutinib] | -8.02% | 1.40% | 0.61% | 0.45% | 1.53% | 4.46% | 3.60% | 3.04% | -5.46% | 12.27% | 51.77% | -23.01% | 8.30% | -3.18% | -2.28% | 7.19% | 3.30% | -1.08% | – | –
5 | C=CC(=O)N1CCC([C@@H]2CCNc3c(C(N)=O)c(-c4ccc(Oc5ccccc5)cc4)nn32)CC1 [zanubrutinib] | – | 6.11% | – | 9.66% | – | – | – | – | -0.20% | – | 18.89% | – | – | – | – | 1.42% | -5.28% | – | – | –
